According to EPA's aquatic toxicity sets:

Experiments:
Daphnia magna = assay: 48 h LC50 (-log10 mol/L); higher = more toxic
Pimephales promelas = assay: 96 h LC50 (-log10 mol/L); higher = more toxic
Tetrahymena pyriformis = assay: 48 h IGC50 (-log10 mol/L); higher = more toxic

Cc1ccccc1
48 h LC50 (-log10 mol/L) (Daphnia magna): 3 | 96 h LC50 (-log10 mol/L) (Pimephales promelas): 3.43 | 48 h IGC50 (-log10 mol/L) (Tetrahymena pyriformis): 3.25

C=CC=O
48 h LC50 (-log10 mol/L) (Daphnia magna): 5.99 | 96 h LC50 (-log10 mol/L) (Pimephales promelas): 6.32 | 48 h IGC50 (-log10 mol/L) (Tetrahymena pyriformis): 4.89

CCCCCC
48 h LC50 (-log10 mol/L) (Daphnia magna): 4.34 | 96 h LC50 (-log10 mol/L) (Pimephales promelas): 4.54 | 48 h IGC50 (-log10 mol/L) (Tetrahymena pyriformis): 3.72

Oc1cc(Cl)c(Cl)cc1Cl
48 h LC50 (-log10 mol/L) (Daphnia magna): 4.86 | 96 h LC50 (-log10 mol/L) (Pimephales promelas): 5.27 | 48 h IGC50 (-log10 mol/L) (Tetrahymena pyriformis): 5.1

Clc1ccccc1
48 h LC50 (-log10 mol/L) (Daphnia magna): 3.92 | 96 h LC50 (-log10 mol/L) (Pimephales promelas): 3.65 | 48 h IGC50 (-log10 mol/L) (Tetrahymena pyriformis): 2.87

Clc1cccc(Cl)c1
48 h LC50 (-log10 mol/L) (Daphnia magna): 4.3 | 96 h LC50 (-log10 mol/L) (Pimephales promelas): 4.27 | 48 h IGC50 (-log10 mol/L) (Tetrahymena pyriformis): 3.56

O=[N+]([O-])c1ccccc1
48 h LC50 (-log10 mol/L) (Daphnia magna): 3.62 | 96 h LC50 (-log10 mol/L) (Pimephales promelas): 3.02 | 48 h IGC50 (-log10 mol/L) (Tetrahymena pyriformis): 3.14

Cc1ccc(O)cc1
48 h LC50 (-log10 mol/L) (Daphnia magna): 3.71 | 96 h LC50 (-log10 mol/L) (Pimephales promelas): 3.67 | 48 h IGC50 (-log10 mol/L) (Tetrahymena pyriformis): 2.84

CCO
48 h LC50 (-log10 mol/L) (Daphnia magna): 0.59 | 96 h LC50 (-log10 mol/L) (Pimephales promelas): 0.534 | 48 h IGC50 (-log10 mol/L) (Tetrahymena pyriformis): 1.01

Oc1ccccc1
48 h LC50 (-log10 mol/L) (Daphnia magna): 3.85 | 96 h LC50 (-log10 mol/L) (Pimephales promelas): 3.5 | 48 h IGC50 (-log10 mol/L) (Tetrahymena pyriformis): 2.65

CC(O)CC(C)(C)O (configuration not stated)
48 h LC50 (-log10 mol/L) (Daphnia magna): 1.22 | 96 h LC50 (-log10 mol/L) (Pimephales promelas): 1.04 | 48 h IGC50 (-log10 mol/L) (Tetrahymena pyriformis): 1.05

c1ccc2nc3ccccc3cc2c1
48 h LC50 (-log10 mol/L) (Daphnia magna): 4.85 | 96 h LC50 (-log10 mol/L) (Pimephales promelas): 4.89 | 48 h IGC50 (-log10 mol/L) (Tetrahymena pyriformis): 4.4

CCCCCCCCCc1ccc(O)cc1
48 h LC50 (-log10 mol/L) (Daphnia magna): 6.06 | 96 h LC50 (-log10 mol/L) (Pimephales promelas): 5.91 | 48 h IGC50 (-log10 mol/L) (Tetrahymena pyriformis): 5.47

CC(C)=O
48 h LC50 (-log10 mol/L) (Daphnia magna): 0.673 | 96 h LC50 (-log10 mol/L) (Pimephales promelas): 0.854 | 48 h IGC50 (-log10 mol/L) (Tetrahymena pyriformis): 0.796

O=[N+]([O-])c1ccccc1O
48 h LC50 (-log10 mol/L) (Daphnia magna): 4.02 | 96 h LC50 (-log10 mol/L) (Pimephales promelas): 2.94 | 48 h IGC50 (-log10 mol/L) (Tetrahymena pyriformis): 3.67

CNc1ccccc1
48 h LC50 (-log10 mol/L) (Daphnia magna): 5.79 | 96 h LC50 (-log10 mol/L) (Pimephales promelas): 3.03 | 48 h IGC50 (-log10 mol/L) (Tetrahymena pyriformis): 3.06

C=Cc1ccccc1
48 h LC50 (-log10 mol/L) (Daphnia magna): 3.53 | 96 h LC50 (-log10 mol/L) (Pimephales promelas): 3.79 | 48 h IGC50 (-log10 mol/L) (Tetrahymena pyriformis): 2.98

CCCCCCCO
48 h LC50 (-log10 mol/L) (Daphnia magna): 3.23 | 96 h LC50 (-log10 mol/L) (Pimephales promelas): 3.51 | 48 h IGC50 (-log10 mol/L) (Tetrahymena pyriformis): 3.1

Cc1cc(O)ccc1Cl
48 h LC50 (-log10 mol/L) (Daphnia magna): 4.85 | 96 h LC50 (-log10 mol/L) (Pimephales promelas): 4.42 | 48 h IGC50 (-log10 mol/L) (Tetrahymena pyriformis): 3.8

Cc1ccccc1O
48 h LC50 (-log10 mol/L) (Daphnia magna): 3.86 | 96 h LC50 (-log10 mol/L) (Pimephales promelas): 3.89 | 48 h IGC50 (-log10 mol/L) (Tetrahymena pyriformis): 2.71

CCc1ccc(C)nc1
48 h LC50 (-log10 mol/L) (Daphnia magna): 3.48 | 96 h LC50 (-log10 mol/L) (Pimephales promelas): 3.17 | 48 h IGC50 (-log10 mol/L) (Tetrahymena pyriformis): 2.82

CCCCC(=O)O
48 h LC50 (-log10 mol/L) (Daphnia magna): 3.36 | 96 h LC50 (-log10 mol/L) (Pimephales promelas): 3.12 | 48 h IGC50 (-log10 mol/L) (Tetrahymena pyriformis): 2.73

Nc1ccc(Cl)c(Cl)c1Cl
48 h LC50 (-log10 mol/L) (Daphnia magna): 5.43 | 96 h LC50 (-log10 mol/L) (Pimephales promelas): 4.74 | 48 h IGC50 (-log10 mol/L) (Tetrahymena pyriformis): 4.35

O=[N+]([O-])c1ccc(O)c([N+](=O)[O-])c1
48 h LC50 (-log10 mol/L) (Daphnia magna): 4.61 | 96 h LC50 (-log10 mol/L) (Pimephales promelas): 4.22 | 48 h IGC50 (-log10 mol/L) (Tetrahymena pyriformis): 4.06

CC1=CC(=O)c2ccccc2C1=O
48 h LC50 (-log10 mol/L) (Daphnia magna): 5.54 | 96 h LC50 (-log10 mol/L) (Pimephales promelas): 6.2 | 48 h IGC50 (-log10 mol/L) (Tetrahymena pyriformis): 4.54

S=c1[nH]c2ccccc2s1
48 h LC50 (-log10 mol/L) (Daphnia magna): 4.49 | 96 h LC50 (-log10 mol/L) (Pimephales promelas): 4.18

CC1(C)[C@H](C=C2CCCC2)[C@H]1C(=O)OCc1coc(Cc2ccccc2)c1
48 h LC50 (-log10 mol/L) (Daphnia magna): 8.16 | 96 h LC50 (-log10 mol/L) (Pimephales promelas): 8.57

CCCCC(CC)COC(=O)c1ccccc1C(=O)OCC(CC)CCCC (configuration not stated)
48 h LC50 (-log10 mol/L) (Daphnia magna): 4.55 | 96 h LC50 (-log10 mol/L) (Pimephales promelas): 2.55

Cc1cccc([N+](=O)[O-])c1
48 h LC50 (-log10 mol/L) (Daphnia magna): 4.04 | 96 h LC50 (-log10 mol/L) (Pimephales promelas): 3.64 | 48 h IGC50 (-log10 mol/L) (Tetrahymena pyriformis): 3.42

CCCCOC(=O)c1ccccc1C(=O)OCCCC
48 h LC50 (-log10 mol/L) (Daphnia magna): 4.88 | 96 h LC50 (-log10 mol/L) (Pimephales promelas): 5.37

c1ccc(Oc2ccccc2)cc1
48 h LC50 (-log10 mol/L) (Daphnia magna): 5.43 | 96 h LC50 (-log10 mol/L) (Pimephales promelas): 4.63

ClC(Cl)C(Cl)(Cl)Cl
48 h LC50 (-log10 mol/L) (Daphnia magna): 4.19 | 96 h LC50 (-log10 mol/L) (Pimephales promelas): 4.43

ClC1=C(Cl)[C@]2(Cl)[C@H]3[C@H]([C@H](Cl)[C@]4(Cl)O[C@H]34)[C@@]1(Cl)C2(Cl)Cl
48 h LC50 (-log10 mol/L) (Daphnia magna): 5.51 | 96 h LC50 (-log10 mol/L) (Pimephales promelas): 8.1

COc1cccc(O)c1
48 h LC50 (-log10 mol/L) (Daphnia magna): 3.48 | 96 h LC50 (-log10 mol/L) (Pimephales promelas): 3.22 | 48 h IGC50 (-log10 mol/L) (Tetrahymena pyriformis): 2.67

CCOP(=S)(OCC)Oc1ccc([N+](=O)[O-])cc1
48 h LC50 (-log10 mol/L) (Daphnia magna): 8.15 | 96 h LC50 (-log10 mol/L) (Pimephales promelas): 5.32

CC(C)c1ccc2c(c1)CC[C@H]1[C@](C)(C(=O)O)CCC[C@]21C
48 h LC50 (-log10 mol/L) (Daphnia magna): 4.56 | 96 h LC50 (-log10 mol/L) (Pimephales promelas): 4.97

c1ccc(-c2ccccc2)cc1
48 h LC50 (-log10 mol/L) (Daphnia magna): 4.91 | 96 h LC50 (-log10 mol/L) (Pimephales promelas): 4.72 | 48 h IGC50 (-log10 mol/L) (Tetrahymena pyriformis): 4.05

c1ccc2c(c1)[nH]c1ccccc12
48 h LC50 (-log10 mol/L) (Daphnia magna): 4.7 | 96 h LC50 (-log10 mol/L) (Pimephales promelas): 5.25 | 48 h IGC50 (-log10 mol/L) (Tetrahymena pyriformis): 3.91

CCN(CC)c1nc(C)cc(OP(=S)(OC)OC)n1
48 h LC50 (-log10 mol/L) (Daphnia magna): 9.14 | 96 h LC50 (-log10 mol/L) (Pimephales promelas): 5.09

CCCN(CCC)c1c([N+](=O)[O-])cc(C(F)(F)F)cc1[N+](=O)[O-]
48 h LC50 (-log10 mol/L) (Daphnia magna): 6.24 | 96 h LC50 (-log10 mol/L) (Pimephales promelas): 6.5

Cc1ccc([N+](=O)[O-])cc1
48 h LC50 (-log10 mol/L) (Daphnia magna): 4.01 | 96 h LC50 (-log10 mol/L) (Pimephales promelas): 3.44

O=C(O)CNCP(=O)(O)O
48 h LC50 (-log10 mol/L) (Daphnia magna): 3.91 | 96 h LC50 (-log10 mol/L) (Pimephales promelas): 4.57

Cc1ccccc1C
48 h LC50 (-log10 mol/L) (Daphnia magna): 3.79 | 96 h LC50 (-log10 mol/L) (Pimephales promelas): 3.81

Clc1ccc(Cl)c(-c2ccccc2Cl)c1
48 h LC50 (-log10 mol/L) (Daphnia magna): 6.67 | 96 h LC50 (-log10 mol/L) (Pimephales promelas): 6.88

C1CCCCC1
48 h LC50 (-log10 mol/L) (Daphnia magna): 4.34 | 96 h LC50 (-log10 mol/L) (Pimephales promelas): 3.3

CCCO
48 h LC50 (-log10 mol/L) (Daphnia magna): 0.935 | 96 h LC50 (-log10 mol/L) (Pimephales promelas): 1.12 | 48 h IGC50 (-log10 mol/L) (Tetrahymena pyriformis): 1.25

ClCCl
48 h LC50 (-log10 mol/L) (Daphnia magna): 2.66 | 96 h LC50 (-log10 mol/L) (Pimephales promelas): 2.42

CC#N
48 h LC50 (-log10 mol/L) (Daphnia magna): 1.06 | 96 h LC50 (-log10 mol/L) (Pimephales promelas): 1.61 | 48 h IGC50 (-log10 mol/L) (Tetrahymena pyriformis): 0.723

CCC(O)C(C)CO (configuration not stated)
48 h LC50 (-log10 mol/L) (Daphnia magna): 1.22 | 96 h LC50 (-log10 mol/L) (Pimephales promelas): 1.13

CCOP(=O)(OCC)Oc1ccc([N+](=O)[O-])cc1
48 h LC50 (-log10 mol/L) (Daphnia magna): 9.14 | 96 h LC50 (-log10 mol/L) (Pimephales promelas): 5.98

CCCCCCCCn1sccc1=O
48 h LC50 (-log10 mol/L) (Daphnia magna): 6.07 | 96 h LC50 (-log10 mol/L) (Pimephales promelas): 6.18

Cc1cccc(C)c1
48 h LC50 (-log10 mol/L) (Daphnia magna): 3.65 | 96 h LC50 (-log10 mol/L) (Pimephales promelas): 3.82

NC(=O)c1c(Cl)cccc1Cl
48 h LC50 (-log10 mol/L) (Daphnia magna): 2.35 | 96 h LC50 (-log10 mol/L) (Pimephales promelas): 2.61
